Results from the supplement of paper PMC10307832.

Key:
Test in all cases: relative viability (nuclei count vs DMSO), 5 days (fraction); higher = more cells survive
[1] = tested on: CAL-12T
Method in brief: (§1)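 Lung cancer cell lines, seeded in 1536-well plates, were treated the following day by pin tool with a single drug or with five library-drug doses (not always all listed) in √10 steps on top of a fixed anchor-drug dose. Cells were fixed and nuclei stained in one step after 5 days, and nuclei were counted. Relative viability is the nuclei count for treated wells divided by that for vehicle wells, reported as medians of duplicate plates.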

[2] = tested on: COR-L 105
Method in brief: as §1

[3] = tested on: NCI-H1915
Method in brief: as §1

[4] = tested on: HCC-827
Method in brief: as §1

[5] = tested on: HCC-366
Method in brief: as §1

[6] = tested on: NCI-H1755
Method in brief: as §1

[7] = tested on: NCI-H1437
Method in brief: as §1

[8] = tested on: NCI-H460
Method in brief: as §1

[9] = tested on: HOP-62
Method in brief: as §1

[10] = tested on: NCI-H23
Method in brief: as §1

[11] = tested on: SK-LU-1
Method in brief: as §1

[12] = tested on: NCI-H2009
Method in brief: as §1

[13] = tested on: NCI-H1355
Method in brief: as §1

[14] = tested on: A-427
Method in brief: as §1

[15] = tested on: NCI-H2228
Method in brief: as §1

[16] = tested on: NCI-H1792
Method in brief: as §1

[17] = tested on: NCI-H727
Method in brief: as §1

[18] = tested on: EMC-BAC-2
Method in brief: as §1

[19] = tested on: HARA
Method in brief: as §1

[20] = tested on: NCI-H1975
Method in brief: as §1

[21] = tested on: NCI-H1395
Method in brief: as §1

[22] = tested on: SW 1573
Method in brief: as §1

Clc1ccc(Nc2nnc(Cc3ccncc3)c3ccccc23)cc1 [Vatalanib] + CS(=O)(=O)CCNCc1ccc(-c2ccc3ncnc(Nc4ccc(OCc5cccc(F)c5)c(Cl)c4)c3c2)o1 [Lapatinib] (partner 2 µM)
relative viability ([1]; first compound 0.04 µM): 0.63 | relative viability ([1]; first compound 0.1265 µM): 0.668 | relative viability ([1]; first compound 1.265 µM): 0.678 | relative viability ([1]; first compound 4 µM): 0.633 | relative viability ([2]; first compound 0.04 µM): 0.375 | relative viability ([2]; first compound 0.1265 µM): 0.301 | relative viability ([2]; first compound 0.4 µM): 0.404 | relative viability ([2]; first compound 1.265 µM): 0.358 | relative viability ([2]; first compound 4 µM): 0.353 | relative viability ([3]; first compound 0.04 µM): 0.974 | relative viability ([3]; first compound 0.1265 µM): 0.88 | relative viability ([3]; first compound 0.4 µM): 0.839 | relative viability ([3]; first compound 1.265 µM): 0.93 | relative viability ([3]; first compound 4 µM): 1.01 | relative viability ([4]; first compound 0.04 µM): 0.19 | relative viability ([4]; first compound 0.1265 µM): 0.174 | relative viability ([4]; first compound 0.4 µM): 0.182 | relative viability ([4]; first compound 1.265 µM): 0.165 | relative viability ([4]; first compound 4 µM): 0.188 | relative viability ([5]; first compound 0.04 µM): 1.02 | relative viability ([5]; first compound 0.1265 µM): 0.93 | relative viability ([5]; first compound 0.4 µM): 1.06 | relative viability ([5]; first compound 1.265 µM): 0.937 | relative viability ([5]; first compound 4 µM): 1.03 | relative viability ([6]; first compound 0.04 µM): 1.02 | relative viability ([6]; first compound 0.1265 µM): 1.02 | relative viability ([6]; first compound 0.4 µM): 1.09 | relative viability ([6]; first compound 1.265 µM): 0.946 | relative viability ([6]; first compound 4 µM): 0.951 | relative viability ([7]; first compound 0.04 µM): 0.856 | relative viability ([7]; first compound 0.1265 µM): 0.779 | relative viability ([7]; first compound 0.4 µM): 0.934 | relative viability ([7]; first compound 1.265 µM): 0.734 | relative viability ([7]; first compound 4 µM): 0.848 | relative viability ([8]; first compound 0.04 µM): 1.04 | relative viability ([8]; first compound 0.1265 µM): 0.848 | relative viability ([8]; first compound 0.4 µM): 0.931 | relative viability ([8]; first compound 1.265 µM): 0.845 | relative viability ([8]; first compound 4 µM): 0.898 | relative viability ([9]; first compound 0.04 µM): 1.13 | relative viability ([9]; first compound 0.4 µM): 1.06 | relative viability ([9]; first compound 1.265 µM): 0.827 | relative viability ([9]; first compound 4 µM): 0.989 | relative viability ([10]; first compound 0.04 µM): 0.963 | relative viability ([10]; first compound 0.1265 µM): 1.15 | relative viability ([10]; first compound 0.4 µM): 1.3 | relative viability ([10]; first compound 1.265 µM): 0.993 | relative viability ([10]; first compound 4 µM): 1.08 | relative viability ([11]; first compound 0.04 µM): 0.963 | relative viability ([11]; first compound 0.1265 µM): 0.875 | relative viability ([11]; first compound 0.4 µM): 1.21 | relative viability ([11]; first compound 1.265 µM): 0.885 | relative viability ([11]; first compound 4 µM): 0.848 | relative viability ([12]; first compound 0.04 µM): 1.03 | relative viability ([12]; first compound 0.1265 µM): 0.868 | relative viability ([12]; first compound 0.4 µM): 1.1 | relative viability ([12]; first compound 1.265 µM): 0.894 | relative viability ([12]; first compound 4 µM): 0.919 | relative viability ([13]; first compound 0.04 µM): 1.02 | relative viability ([13]; first compound 0.1265 µM): 0.934 | relative viability ([13]; first compound 0.4 µM): 1.14 | relative viability ([13]; first compound 1.265 µM): 0.86 | relative viability ([13]; first compound 4 µM): 0.887 | relative viability ([14]; first compound 0.04 µM): 1.01 | relative viability ([14]; first compound 0.1265 µM): 0.938 | relative viability ([14]; first compound 0.4 µM): 0.769 | relative viability ([14]; first compound 1.265 µM): 0.972 | relative viability ([14]; first compound 4 µM): 1.11 | relative viability ([15]; first compound 0.04 µM): 1.32 | relative viability ([15]; first compound 0.1265 µM): 1.14 | relative viability ([15]; first compound 0.4 µM): 1.06 | relative viability ([15]; first compound 1.265 µM): 0.981 | relative viability ([15]; first compound 4 µM): 1.28 | relative viability ([16]; first compound 0.04 µM): 0.892 | relative viability ([16]; first compound 0.1265 µM): 0.852 | relative viability ([16]; first compound 0.4 µM): 0.966 | relative viability ([16]; first compound 1.265 µM): 0.87 | relative viability ([16]; first compound 4 µM): 0.877 | relative viability ([17]; first compound 0.04 µM): 0.806 | relative viability ([17]; first compound 0.1265 µM): 0.717 | relative viability ([17]; first compound 0.4 µM): 0.9 | relative viability ([17]; first compound 1.265 µM): 0.709 | relative viability ([17]; first compound 4 µM): 1.02 | relative viability ([18]; first compound 0.04 µM): 0.905 | relative viability ([18]; first compound 0.1265 µM): 0.884 | relative viability ([18]; first compound 0.4 µM): 0.919 | relative viability ([18]; first compound 1.265 µM): 0.832 | relative viability ([18]; first compound 4 µM): 0.885 | relative viability ([19]; first compound 0.04 µM): 0.583 | relative viability ([19]; first compound 0.1265 µM): 0.694 | relative viability ([19]; first compound 0.4 µM): 0.746 | relative viability ([19]; first compound 1.265 µM): 0.731 | relative viability ([19]; first compound 4 µM): 0.948 | relative viability ([20]; first compound 0.04 µM): 0.856 | relative viability ([20]; first compound 0.1265 µM): 0.827 | relative viability ([20]; first compound 0.4 µM): 0.942 | relative viability ([20]; first compound 1.265 µM): 0.808 | relative viability ([20]; first compound 4 µM): 0.769 | relative viability ([21]; first compound 0.04 µM): 1.16 | relative viability ([21]; first compound 0.1265 µM): 0.929 | relative viability ([21]; first compound 0.4 µM): 0.948 | relative viability ([21]; first compound 1.265 µM): 1.01 | relative viability ([21]; first compound 4 µM): 0.864 | relative viability ([22]; first compound 0.04 µM): 1.29 | relative viability ([22]; first compound 0.1265 µM): 0.942 | relative viability ([22]; first compound 0.4 µM): 1.23 | relative viability ([22]; first compound 1.265 µM): 1.04 | relative viability ([22]; first compound 4 µM): 1.05
